In experiment [1] the target is T1, 5-HT2A receptor (5-HT2AR) (Homo sapiens, UniProt P28223).
T1 construct: gene HTR2A; full-length receptor in HEK293T; co-expressed Galphaq-RLuc8/Gbeta1/Ggamma1-GFP2 for Gq dissociation; C-terminal RLuc8 fusion for beta-arrestin2 recruitment
It counts as cell-based.

Experiment [2] addresses T2, 5-HT2B receptor (5-HT2BR) (Homo sapiens, UniProt P41595).
T2 construct: gene HTR2B; full-length receptor in HEK293T with Galphaq-RLuc8/Gbeta1/Ggamma1-GFP2
Kind of experiment: Gq dissociation BRET2 in HEK293T. Type of experiment: cell-based. To be noted: partial agonist; 37 °C, 60 min. On the technique in general: Bioluminescence resonance energy transfer reports proximity on the nanometre scale.

Experiment [3] concerns the target T3, 5-HT2C receptor (5-HT2CR) (Homo sapiens, UniProt P28335).
T3 construct: gene HTR2C; full-length receptor in HEK293T with Galphaq-RLuc8/Gbeta1/Ggamma1-GFP2
Kind of experiment: Gq dissociation BRET2 in HEK293T. The conditions noted are these: agonist; 37 °C, 60 min. Type of experiment: cell-based.

In experiment [4] the target is T1, 5-HT2A receptor (5-HT2AR). In words: competition radioligand binding (NIMH PDSP). To be noted: competitive.
Experiment [5] concerns the target T1, 5-HT2A receptor (5-HT2AR). In words: Gq dissociation BRET2 in HEK293T. It counts as cell-based. The conditions noted are these: 37 °C.

Drawing on paper PMC10724237, “Identification of 5-HT2A receptor signaling pathways associated with psychedelic potential” (Nature Communications, 2023), this text covers EC50, EMAX and pKi for 8 molecules.

Where two headings read alike, the source gives them in different places.

T1 sequence (P28223 whole entry, the tested form may be a part): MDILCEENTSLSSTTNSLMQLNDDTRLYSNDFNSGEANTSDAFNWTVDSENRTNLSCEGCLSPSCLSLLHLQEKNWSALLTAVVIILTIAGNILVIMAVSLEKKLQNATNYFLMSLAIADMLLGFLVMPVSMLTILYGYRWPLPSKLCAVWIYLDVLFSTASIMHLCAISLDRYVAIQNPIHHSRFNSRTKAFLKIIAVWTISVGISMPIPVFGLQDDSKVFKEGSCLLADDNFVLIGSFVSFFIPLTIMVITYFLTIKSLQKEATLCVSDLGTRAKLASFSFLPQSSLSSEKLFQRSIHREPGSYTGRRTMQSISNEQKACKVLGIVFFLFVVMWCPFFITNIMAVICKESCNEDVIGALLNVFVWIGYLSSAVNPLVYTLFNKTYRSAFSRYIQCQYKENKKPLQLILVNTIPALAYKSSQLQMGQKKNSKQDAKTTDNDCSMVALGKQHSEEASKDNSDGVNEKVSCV
T2 sequence (P41595 whole entry): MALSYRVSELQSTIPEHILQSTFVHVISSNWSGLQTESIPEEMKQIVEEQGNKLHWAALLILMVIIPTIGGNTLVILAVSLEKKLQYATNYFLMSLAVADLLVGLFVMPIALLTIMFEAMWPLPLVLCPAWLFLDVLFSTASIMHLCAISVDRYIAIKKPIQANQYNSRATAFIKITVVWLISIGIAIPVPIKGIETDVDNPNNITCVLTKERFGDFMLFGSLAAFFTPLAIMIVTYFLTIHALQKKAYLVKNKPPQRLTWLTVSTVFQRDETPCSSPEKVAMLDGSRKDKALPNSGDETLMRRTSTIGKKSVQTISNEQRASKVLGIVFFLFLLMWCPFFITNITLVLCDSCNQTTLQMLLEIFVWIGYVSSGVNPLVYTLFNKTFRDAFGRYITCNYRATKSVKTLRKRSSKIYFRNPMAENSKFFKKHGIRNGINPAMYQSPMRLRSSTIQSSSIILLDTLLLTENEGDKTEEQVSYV
T3 sequence (P28335 33-458): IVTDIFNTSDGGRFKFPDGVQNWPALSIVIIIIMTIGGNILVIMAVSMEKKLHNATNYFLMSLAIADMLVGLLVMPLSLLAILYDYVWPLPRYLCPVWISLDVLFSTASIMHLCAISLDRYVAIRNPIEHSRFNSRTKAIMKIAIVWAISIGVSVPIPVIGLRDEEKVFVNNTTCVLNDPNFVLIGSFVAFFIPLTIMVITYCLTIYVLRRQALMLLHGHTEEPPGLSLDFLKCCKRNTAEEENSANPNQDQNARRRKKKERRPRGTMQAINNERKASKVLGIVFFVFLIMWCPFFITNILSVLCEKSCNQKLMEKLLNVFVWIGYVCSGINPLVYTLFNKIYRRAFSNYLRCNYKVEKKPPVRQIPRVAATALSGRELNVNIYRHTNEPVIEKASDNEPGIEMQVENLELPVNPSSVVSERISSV

The EC50 is the concentration at which the effect is half-maximal. Consider `COc1ccc2[nH]cc(CCN(C)C)c2c1` [5-MeO-DMT, 5-methoxy-N,N-dimethyltryptamine], for which the EC50 entry in experiment [1] (agonist, 37 °C, 60 min) was “(E) Psilocin, (F) DMT, (G) 5-MeO-DMT”.

Take `CN(C)CCc1c[nH]c2ccccc12` [DMT]: in experiment [1], the EC50 entry is “(E) Psilocin, (F) DMT, (G) 5-MeO-DMT”.

As to `CN(C)CCc1c[nH]c2cccc(O)c12` [Psilocin], the EC50 result in experiment [1] (agonist, 37 °C, 60 min) is recorded as “(E) Psilocin, (F) DMT, (G) 5-MeO-DMT”.

Take `COc1cc([N+](=O)[O-])c(OC)cc1CCNCc1ccccc1` [compound 2, 25N-NB]: in experiment [2], the EMAX is reported as 32 % of 5-HT. The molecule further showed an EC50 in experiment [3] of 8.3 nM.

In the case of `COc1cc([N+](=O)[O-])c(OC)cc1CCNCc1ccccc1I` [compound 10, 25N-NBI], the pKi entry in experiment [4] was “selectivity for 5-HT2AR over 5-HT2BR and 5-HT2CR in competitive binding studies”.

As to `COc1cc(CCNCc2cccc3ccccc23)c(OC)cc1C` [compound 26, 25D-N1-Nap], in experiment [5] (partial agonist), the EMAX is given as 34.3 % of 5-HT.

Regarding `COc1cc(OC)c(OC)cc1CCNCc1ccccc1OC` [compound 32], the EMAX in experiment [5] (agonist) is 99.9 % of 5-HT.

As to `COc1cc(OC)c(OC)cc1CCNCc1cccc(I)c1` [compound 34, 25O-NB-3-I], in experiment [5] (partial agonist), the EMAX is 51.7 % of 5-HT.
